We go through four molecules from US9944607B2, “Thiohydantoin derivatives and uses thereof” (Whitehead Institute for Biomedical Research, priority 2012, dated 2018).

One data set concerns Candida albicans CaCi-17. Description: Primary assay: C. albicans CaCi-17 growth inhibition (Alamar Blue). The conditions noted are these: for IC50: Candida albicans. It is filed as cell-based. (In general: Alamar Blue is a resazurin reagent that responds to reducing activity.)
The subject of data set [1] is NIH-3T3 mammalian fibroblasts. Description: Counterscreen mammalian cell toxicity assay (Alamar Blue). The conditions noted are these: for IC50: Mus musculus. The data set is classed as cell-based, murine. The essentials:
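Quiescent NIH-3T3 fibroblasts, cultured overnight, exposed to 100 nL pinned compound for 48 h at 37° C, 5% CO2. Alamar Blue added to 1:200 final, 2-3 h further incubation; fluorescence (RFU) read as relative cell growth.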

The next data set concerns C. glabrata (ATCC 2001). Description: Secondary C. glabrata inhibition in glycerol media (OD600). It is filed as cell-based, Candida glabrata. The conditions noted are these: for IC50: Nakaseomyces glabratus. The text has this:
Cell Lines. • Candida albicans CaCi-2; a drug-resistant clinical isolate was provided by the Whitehead Institute (Redding et al., Clin. Infect. Dis. 1994, 18(2):240-2). This strain was used for the primary assay. • Candida albicans CaCi-17; a strongly drug-resistant clinical isolate was provided by the Whitehead Institute (Redding et al., Clin. Infect. Dis. 1994, 18(2):240-2). This strain was used for the primary assay • Saccharyomyces cerevisiae W303-1a (ATCC 208352); a well-characterized Saccharomyces strain used for determination of glycolytic vs. respiratory metabolism, as well as in the mitochondrial disruption assay. • Candida glabrata (ATCC 2001); used for determination of glycolytic vs. respiratory metabolism. • NIH-3T3 mammalian fibroblasts (ATCC; CRL no.1658); used for mammalian toxicity assays. […]
Saccharomyces, while not a major human pathogen, is a useful lab model with well-developed genetic tools available. Candida glabrata is an increasingly prominent clinical problem for immune-compromised patients but with fewer genetic tools available with which to study it. These organisms can utilize alternative metabolic pathways to support growth and survival depending on the carbon source. By comparing the concentration-dependent inhibition of yeast growth in glycerol relative to glucose media, a quantitative assessment of a compound's ability to disrupt respiration can be determined. […].
Clear, flat bottom, black 384-well plates (Corning Catalog no. 3712BC; Lot no. 35808016); Amphotericin B (Sigma Catalog no. A2411) 15 mM stock solution in DMSO; Pen/Strep (Gibco Catalog no. 10378-016; Lot no21040170) 100× in PBS.
Synthetic defined growth medium. Complete Supplement Mixture; (Sunrise Science, Catalog No. 1001-100); Yeast Nitrogen Base without ammonium sulfate (MP Biomedicals, Catalog No. 4027-012); Glycerol (Sigma Catalog No. G-9012). • Prepare medium by dissolving 0.79 g Complete Supplement Mixture and 1.7 g Yeast Nitrogen Base in 800 mL water. • Add 20 mL of glycerol. Adjust final volume to 1000 mL. Filter sterilize.
Fungal Inoculum. Test Strains: C. glabrata (ATCC 2001) and Saccharomyces cerevisiae W303. • Inoculate 100 μL of yeast from cryopreserved stock into 250 mL shaker flask containing 20 mL growth medium. Shake at 30° C. overnight (about 16 hours). • Read OD 600 of 1 mL of fungal culture in a cuvette using a standard optical density reader (Eppendorf BioPhotometer Plus), with growth medium as a background blank. • Dilute to desired volume of fungal inoculum to produce an OD600 reading of 0.005 (S. cerevisiae) or 0.004 (C. glabrata).
Procedures • Use a Thermo Combi nL to dispense 20 μL/well of assay media into all wells. • Add 2 μL of Amphotericin B to control wells. • Pin 100 nL of test compound from compound plates into assay plates using a CyBi-Well pin tool. • Dispense 20 μL/well of culture into the assay media in all wells. • Incubate the plates in a humidified (90% humidity) Liconic incubator at 37° C. without agitation for 48 hours. • Shake plates briefly. • Read OD600 of wells on a standard plate reader as measure of relative fungal growth. Envision (Perkin Elmer) plate reader settings: Ex Photometric 600, Top read. Secondary Glucose Assay Protocol (AID 623971, 623967, 624013, 624025) Materials and Reagents

The nature of data set [2]: Solubility in PBS pH 7.4 with 1% DMSO. The note with it: for PBS Solubility: PBS pH 7.4 with 1% DMSO, 24 hours, room temperature; for solubility at 24 h: pH 7.4, aqueous buffer, kinetic from dmso stock. Put shortly:
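Compounds at 100 μM in duplicate in PBS pH 7.4 containing 1% DMSO, shaken 24 hours at room temperature. Concentration measured by UPLC-MS with SIR detection, fitted to a two-point calibration from matching 100% DMSO samples.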

The mark [3] stands for this setting: phosphate buffered saline with 1% DMSO.

In brackets after ≈: the same amount, converted by molar mass. Like-named read-outs stand apart in the source and are kept apart here.

Regarding `CCOC(=O)N1C(=O)C2(CCCCC2)N(c2ccc(C)cc2)C1=S` [compound 3889161], the half-inhibitory concentration (IC50) turned out to be 8.5 µM in the data set with Candida albicans CaCi-17 (CACI17, 48 h, read-out: Growth Inhibition Activity, IC50 (μM), C. albicans (n = 3) CaCi-17) and 0.041 µM in the data set with C. glabrata (ATCC 2001) (ATCC2001, 48 h, read-out: Growth Inhibition Activity, IC50 (μM), C. glabrata (n = 3) On glycerol). Further, the “Growth Inhibition Activity, IC50 (μM), 3T3 Fibroblasts (n = 1)” value in data set [1] (Table 3, n = 1, 48 hours, tested up to 26 μM) was “Inactive”; in data set [1] (Table 4, n = 1, 48 hours, tested up to 26 μM) it was “Inactive”; in data set [1] (Table 5, n = 1, 48 hours, tested up to 26 μM), “Inactive”; in data set [1] (Table 6, n = 1, 48 hours, tested up to 26 μM), “Inactive”; in data set [1] (Table 7, n = 1, 48 hours, tested up to 26 μM) it was “Inactive”. The “PBS Solubility” value in data set [2] (Table 4), in data set [2] (Table 5), in data set [2] (Table 6) and in data set [2] (Table 7) was less than 1.0 µM each time. Moreover, the solubility at 24 h in data set [2] (setting [3]) is less than 1 µM.

Consider `CCOC(=O)N1C(=O)C2(CCCCC2)N(c2cccc(C)c2)C1=S` [compound 56604823], for which the half-inhibitory concentration (IC50) with Candida albicans CaCi-17 (CACI17, Table 4, n = 3, 48 hours, tested up to 26 μM, read-out: Growth Inhibition Activity, IC50 (μM), C. albicans (n = 3) CaCi-17) was determined as 8.2 µM; in data set [1] (NIH3T3, read-out: Growth Inhibition Activity, IC50 (μM), 3T3 Fibroblasts (n = 1), Table 4, n = 1, 48 hours, tested up to 26 μM), 24.2 µM; with C. glabrata (ATCC 2001) (ATCC2001, Table 8, n = 3, glycerol media, 48 hours, tested up to 3 μM, read-out: Growth Inhibition Activity, IC50 (μM), C. glabrata (n = 3) On glycerol) it was 0.034 µM. The same molecule had a solubility at 24 h in data set [2] (setting [3]) of 2.6 µM (≈ 0.901 µg/mL).

For the molecule `CCOC(=O)N1C(=O)C2(CCCCC2)N(c2ccc(F)cc2)C1=S` [CID 56604860, Ethyl 1-(4-fluorophenyl)-4-oxo-2-thioxo-1,3-diazaspiro[4.5]decane-3-carboxylate], the 50% inhibitory concentration (IC50) was 1 µM in the data set with Candida albicans CaCi-17 (CACI17, read-out: C. albicans CaCi-17 growth inhibition IC50); greater than 26 µM in data set [1] (NIH3T3, read-out: Murine 3T3 fibroblasts growth inhibition (fibroblast toxicity) IC50); 0.011 µM in the data set on C. glabrata (ATCC 2001) (ATCC2001, read-out: Growth inhibition of C. glabrata on glycerol IC50). Besides, the “Fold Selective (Anti-target IC50/Target IC50), fibroblast toxicity vs CaCi-17 growth inhibition” value in the data set with Candida albicans CaCi-17 (Table 12) is recorded as greater than 37x. The “Toxicity against mammalian fibroblasts (in words)” value in data set [1] (at concentrations up to 26 μM) is on record as “no apparent toxicity”. Besides, the “Reduction in potency when glucose is available instead of glycerol, C. glabrata” value with C. glabrata (ATCC 2001) is reported as “greater than 250 fold”. For the same molecule, the “Fold Selective (Glucose IC50/Glycerol IC50), C. glabrata” value in the data set with C. glabrata (ATCC 2001) (Table 13) was greater than 272x. The same molecule came in with a solubility at 24 h in data set [2] (setting [3]) of 1.1 µM (≈ 0.385 µg/mL).

`C/C=C/C1[C@H]2C[C@@H](C)CC[C@@H]2C(C)=C[C@H]1C(=O)c1c(O)c(-c2ccc(O)cc2)c[nH]c1=O` (stereo partly shown) [ilicicolin H, reference compound]: the half-inhibitory concentration (IC50) with Candida albicans CaCi-17 (CACI17, Tables 9, 10, 12, AID 623897, read-out: C. albicans CaCi-17 growth inhibition IC50) was greater than 3 µM; in data set [1] (NIH3T3, Tables 9, 10, 12, AID 602394, read-out: Murine 3T3 fibroblasts growth inhibition (fibroblast toxicity) IC50) it was 10 µM; with C. glabrata (ATCC 2001) (ATCC2001, figure legends and Tables 9, 10, 13, AID 623965, read-out: Growth inhibition of C. glabrata on glycerol IC50) it was 2.6 µM. In data set [2], this molecule gave a solubility at 24 h of less than 1 µM.

The IC50 is the concentration that inhibits the measured activity by half. Usually solubility stands for the dissolved amount per volume that the medium holds. Low readings indicate a poorly soluble substance, high ones a readily soluble substance.
